According to PMC3345088 (Journal of Immunology (Baltimore, Md. : 1950), 2012):

Test system: purified HLA class II DR, DP and DQ molecules
Test: MHC-peptide binding assays
Design: species or system human
Conditions: allele as in inferred restricting HLA allele column

| Substance | Binding to the allelic variant shared by all responders |
| --- | --- |
| CFP10 52–66: 15-mer peptide epitope, residues 52–66 of CFP10 (Rv3874) | high affinity |
| ESAT-6 73–87: 15-mer peptide epitope, residues 73–87 of ESAT-6 (Rv3875) (ARTISEAGQAMASTE; UniProt P9WNK7 73-87, looked up, fragment) | high affinity |
